Laboratory results taken from ChEMBL document CHEMBL1141935, “Aminopiperidine indazoles as orally efficacious melanin concentrating hormone receptor-1 antagonists” (Bioorg Med Chem Lett, 2005).

Tests used:
[1] = molecular target: T1, Melanin-concentrating hormone receptor 1 (Homo sapiens, UniProt Q99705); experiment: Binding affinity to human MCHr1 from neuronal IMR32 cells; assay type: cell-based, IMR-32
[2] = molecular target: T1, Melanin-concentrating hormone receptor 1; experiment: Functional antagonism of MCH-mediated calcium release by FLIPR using human MCHr1 from neuronal IMR32 cells; assay type: cell-based, IMR-32
[3] = AUC in DIO mice plasma at 10 mg/kg, po; assay type: ADME, organism-based; design: dose 10 mg/kg, route oral; settings: mouse
[4] = AUC in DIO mice brain at 10 mg/kg, po; assay type: ADME, organism-based; design: dose 10 mg/kg, route oral; settings: mouse
[5] = Half life in DIO mice plasma at 10 mg/kg, po; assay type: ADME, organism-based; design: dose 10 mg/kg, route oral; settings: mouse
[6] = Half life in DIO mice brain at 10 mg/kg, po; assay type: ADME, organism-based; design: dose 10 mg/kg, route oral; settings: mouse
[7] = Cmax in DIO mice plasma at 10 mg/kg, po; assay type: ADME, organism-based; design: dose 10 mg/kg, route oral; settings: mouse
[8] = Cmax in DIO mice brain at 10 mg/kg, po; assay type: ADME, organism-based; design: dose 10 mg/kg, route oral; settings: mouse

T1 sequence (Q99705 whole entry): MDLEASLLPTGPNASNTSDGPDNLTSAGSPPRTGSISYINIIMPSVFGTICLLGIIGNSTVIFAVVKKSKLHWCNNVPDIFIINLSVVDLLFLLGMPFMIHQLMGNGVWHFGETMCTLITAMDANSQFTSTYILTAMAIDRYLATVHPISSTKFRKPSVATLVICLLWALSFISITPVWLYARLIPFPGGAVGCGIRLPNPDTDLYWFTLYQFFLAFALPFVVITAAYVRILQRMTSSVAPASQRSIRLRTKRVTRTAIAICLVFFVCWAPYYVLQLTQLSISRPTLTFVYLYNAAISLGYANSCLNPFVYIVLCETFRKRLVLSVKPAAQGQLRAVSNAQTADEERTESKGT

Row | Structure (SMILES) | IC50 [1] [nM] | IC50 [2] [nM] | AUC [3] [ng·h/mL] | AUC [4] [ng·h/mL] | half-life [5] [h] | half-life [6] [h] | Cmax [7] [ng/mL] | Cmax [8] [ng/mL]
1 | Cc1ccc2[nH]nc(NC3CCN(Cc4ccc5c(c4)OCO5)CC3)c2c1 | 110 | 1060 |  |  |  |  |  | 
2 | O=[N+]([O-])c1ccc2[nH]nc(NC3CCN(Cc4ccc5c(c4)OCO5)CC3)c2c1 | 6 | 70 | 14400 | 22800 | 3.3 | 4 | 1520 | 3080
3 | c1ccc2c(NC3CCN(Cc4ccc5c(c4)OCO5)CC3)[nH]nc2c1 | 440 | > 10000 |  |  |  |  |  | 
4 | COc1ccc(CN2CCC(Nc3[nH]nc4ccc(Cl)cc34)CC2)c(F)c1 | 240 | 5200 |  |  |  |  |  | 
5 | N#Cc1ccc2[nH]nc(NC3CCN(Cc4ccc5c(c4)OCO5)CC3)c2c1 | 220 | 3400 |  |  |  |  |  | 
6 | Clc1ccc2c(c1)c(NC1CCN(Cc3ccc4c(c3)OCO4)CC1)nn2Cc1ccccn1 | 9 | 550 |  |  |  |  |  | 
7 | COc1cccc(CN2CCC(Nc3[nH]nc4ccc(Cl)cc34)CC2)c1 | 150 | 4500 |  |  |  |  |  | 
8 | Cc1ccc(CN2CCC(Nc3[nH]nc4ccc(Cl)cc34)CC2)cc1C | 100 | 1380 |  |  |  |  |  | 
9 | Clc1ccc2[nH]nc(NC3CCN(Cc4ccc5nsnc5c4)CC3)c2c1 | 50 | 4910 |  |  |  |  |  | 
10 | Clc1ccc2[nH]nc(NC3CCN(Cc4ccccc4)CC3)c2c1 | 850 | > 10000 |  |  |  |  |  | 
11 | Clc1ccc2c(c1)c(NC1CCN(Cc3ccc4c(c3)OCO4)CC1)nn2Cc1cccnc1 | 20 | 290 | 11900 | 5340 | 4.7 | 6 | 1690 | 758
12 | Clc1ccc2[nH]nc(NC3CCN(Cc4ccc5c(c4)OCCO5)CC3)c2c1 | 70 | 1890 |  |  |  |  |  | 
13 | COc1cccc2[nH]nc(NC3CCN(Cc4ccc5c(c4)OCO5)CC3)c12 | 330 | > 10000 |  |  |  |  |  | 
14 | COc1ccc2[nH]nc(NC3CCN(Cc4ccc5c[nH]nc5c4)CC3)c2c1 | 50 | 380 |  |  |  |  |  | 
15 | O=C(c1cscn1)n1nc(NC2CCN(Cc3ccc4c(c3)OCO4)CC2)c2cc(Cl)ccc21 | 20 | 2540 | 400 |  | 1 |  | 271 | 
16 | O=C(C1CC1)n1nc(NC2CCN(Cc3ccc4c(c3)OCO4)CC2)c2cc(Cl)ccc21 | 40 | > 10000 |  |  |  |  |  | 
17 | Clc1ccc2c(c1)c(NC1CCN(Cc3ccc4c(c3)OCO4)CC1)nn2Cc1ccncc1 | 7 | 560 |  |  |  |  |  | 
18 | COc1ccc2c(c1)c(NC1CCN(Cc3ccc4c(c3)OCO4)CC1)nn2C | 30 | 190 |  |  |  |  |  | 
19 | O=C(CN1CCOCC1)n1nc(NC2CCN(Cc3ccc4c(c3)OCO4)CC2)c2cc(Cl)ccc21 | 20 | 1140 |  |  |  |  |  | 
20 | O=C(c1cccnc1)n1nc(NC2CCN(Cc3ccc4c(c3)OCO4)CC2)c2cc(Cl)ccc21 | 20 | 930 | 164 |  | 2.3 |  | 63 | 
21 | Clc1ccc(CN2CCC(Nc3[nH]nc4ccc(Cl)cc34)CC2)cc1 | 200 | 6200 |  |  |  |  |  | 
22 | Clc1ccc2c(c1)c(NC1CCN(Cc3ccc4c(c3)OCO4)CC1)nn2-c1ccccc1 | 50 | > 10000 |  |  |  |  |  | 
23 | Clc1ccc2c(c1)c(NC1CCN(Cc3ccc4c(c3)OCO4)CC1)nn2Cc1ccccc1 | 40 | 5230 |  |  |  |  |  | 
24 | COc1ccc2[nH]nc(NC3CCN(Cc4ccc5c(c4)OCO5)CC3)c2c1 | 8 | 60 | 7630 | 28500 | 3.9 | 4.9 | 1410 | 6040
25 | Clc1ccc2c(c1)c(NC1CCN(Cc3ccc4ccccc4c3)CC1)nn2Cc1ccccn1 | 20 | 640 |  |  |  |  |  | 
26 | Clc1ccc2[nH]nc(NC3CCN(Cc4ccc5ccccc5c4)CC3)c2c1 | 40 | 1820 |  |  |  |  |  | 
27 | O=[N+]([O-])c1ccc2[nH]nc(NC3CCN(Cc4ccc5c(c4)OCCO5)CC3)c2c1 | 30 | 520 |  |  |  |  |  | 
28 | FC(F)(F)c1ccc2[nH]nc(NC3CCN(Cc4ccc5c(c4)OCO5)CC3)c2c1 | > 2000 | > 10000 |  |  |  |  |  | 
29 | Clc1ccc2[nH]nc(NC3CCN(Cc4ccc5c(c4)OCO5)CC3)c2c1 | 20 | 260 | 8760 | 59100 | 3.1 | 2.9 | 1880 | 12100
30 | O=[N+]([O-])c1ccc2c(c1)c(NC1CCN(Cc3ccc4c(c3)OCO4)CC1)nn2Cc1ccccc1 | 5 | 350 |  |  |  |  |  | 
